IC50 and MIC data for twelve compounds are collected here from patent publication US20190330224A1, “ACC INHIBITORS AND USES THEREOF” (Gilead Apollo, LLC, priority 2015, published 2019).

One test deals with Human ACC2 (Homo sapiens, UniProt O00763). As to the kind of experiment: In vitro ACC2 inhibition assay (ADP-Glo), human ACC2. Format: biochemical. The following applies: 5 nM ACC2, 20 μM ATP, 20 μM acetyl-CoA.
A further test relates to C. albicans ATCC 90028. As to the kind of experiment: Anti-Fungal Activity Assay (broth microtiter MIC), C. albicans. It counts as cell-based, Candida albicans. The following applies: Candida albicans, ATCC90028, 48 h, 3 replicates; MIC recorded at 48 h; read-out: MIC C. albicans ATCC 90028. In a few lines: (§1)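 Susceptibility testing used direct colony suspensions in RPMI 1640+MOPS from Sabouraud dextrose agar grown at 35° C. Endpoints were visual MICs at 48 h under CLSI M27-A3 microtiter conditions, plus a 24 h reading for soraphen.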

The next test concerns C. krusei ATCC 6258. As to the kind of experiment: Anti-Fungal Activity Assay (broth microtiter MIC), C. krusei. To be noted: Pichia kudriavzevii, ATCC6258, 48 h, 3 replicates; MIC recorded at 48 h; read-out: MIC C. krusei ATCC 6258. Format: cell-based, Candida krusei. In a few lines: as §1
Test [1] deals with C. parapsilosis ATCC 22019. Put plainly: Anti-Fungal Activity Assay (broth microtiter MIC), C. parapsilosis. Format: cell-based, Candida parapsilosis. To be noted: Lodderomyces parapsilosis, ATCC22019, 48 h, 3 replicates; MIC recorded at 48 h; read-out: MIC C. parapsilosis ATCC 22019. In short, it runs like this:
as §1

The next test addresses Fungal ACC2 (UniProt Q00955). The following applies: read-out: Fungal ACC2 (IC50, in vitro ACC2 inhibition).

SMILES strings stand for the structures. Converted amounts (≈) assume the structure as drawn.

Sequence of Human ACC2 (O00763 whole entry): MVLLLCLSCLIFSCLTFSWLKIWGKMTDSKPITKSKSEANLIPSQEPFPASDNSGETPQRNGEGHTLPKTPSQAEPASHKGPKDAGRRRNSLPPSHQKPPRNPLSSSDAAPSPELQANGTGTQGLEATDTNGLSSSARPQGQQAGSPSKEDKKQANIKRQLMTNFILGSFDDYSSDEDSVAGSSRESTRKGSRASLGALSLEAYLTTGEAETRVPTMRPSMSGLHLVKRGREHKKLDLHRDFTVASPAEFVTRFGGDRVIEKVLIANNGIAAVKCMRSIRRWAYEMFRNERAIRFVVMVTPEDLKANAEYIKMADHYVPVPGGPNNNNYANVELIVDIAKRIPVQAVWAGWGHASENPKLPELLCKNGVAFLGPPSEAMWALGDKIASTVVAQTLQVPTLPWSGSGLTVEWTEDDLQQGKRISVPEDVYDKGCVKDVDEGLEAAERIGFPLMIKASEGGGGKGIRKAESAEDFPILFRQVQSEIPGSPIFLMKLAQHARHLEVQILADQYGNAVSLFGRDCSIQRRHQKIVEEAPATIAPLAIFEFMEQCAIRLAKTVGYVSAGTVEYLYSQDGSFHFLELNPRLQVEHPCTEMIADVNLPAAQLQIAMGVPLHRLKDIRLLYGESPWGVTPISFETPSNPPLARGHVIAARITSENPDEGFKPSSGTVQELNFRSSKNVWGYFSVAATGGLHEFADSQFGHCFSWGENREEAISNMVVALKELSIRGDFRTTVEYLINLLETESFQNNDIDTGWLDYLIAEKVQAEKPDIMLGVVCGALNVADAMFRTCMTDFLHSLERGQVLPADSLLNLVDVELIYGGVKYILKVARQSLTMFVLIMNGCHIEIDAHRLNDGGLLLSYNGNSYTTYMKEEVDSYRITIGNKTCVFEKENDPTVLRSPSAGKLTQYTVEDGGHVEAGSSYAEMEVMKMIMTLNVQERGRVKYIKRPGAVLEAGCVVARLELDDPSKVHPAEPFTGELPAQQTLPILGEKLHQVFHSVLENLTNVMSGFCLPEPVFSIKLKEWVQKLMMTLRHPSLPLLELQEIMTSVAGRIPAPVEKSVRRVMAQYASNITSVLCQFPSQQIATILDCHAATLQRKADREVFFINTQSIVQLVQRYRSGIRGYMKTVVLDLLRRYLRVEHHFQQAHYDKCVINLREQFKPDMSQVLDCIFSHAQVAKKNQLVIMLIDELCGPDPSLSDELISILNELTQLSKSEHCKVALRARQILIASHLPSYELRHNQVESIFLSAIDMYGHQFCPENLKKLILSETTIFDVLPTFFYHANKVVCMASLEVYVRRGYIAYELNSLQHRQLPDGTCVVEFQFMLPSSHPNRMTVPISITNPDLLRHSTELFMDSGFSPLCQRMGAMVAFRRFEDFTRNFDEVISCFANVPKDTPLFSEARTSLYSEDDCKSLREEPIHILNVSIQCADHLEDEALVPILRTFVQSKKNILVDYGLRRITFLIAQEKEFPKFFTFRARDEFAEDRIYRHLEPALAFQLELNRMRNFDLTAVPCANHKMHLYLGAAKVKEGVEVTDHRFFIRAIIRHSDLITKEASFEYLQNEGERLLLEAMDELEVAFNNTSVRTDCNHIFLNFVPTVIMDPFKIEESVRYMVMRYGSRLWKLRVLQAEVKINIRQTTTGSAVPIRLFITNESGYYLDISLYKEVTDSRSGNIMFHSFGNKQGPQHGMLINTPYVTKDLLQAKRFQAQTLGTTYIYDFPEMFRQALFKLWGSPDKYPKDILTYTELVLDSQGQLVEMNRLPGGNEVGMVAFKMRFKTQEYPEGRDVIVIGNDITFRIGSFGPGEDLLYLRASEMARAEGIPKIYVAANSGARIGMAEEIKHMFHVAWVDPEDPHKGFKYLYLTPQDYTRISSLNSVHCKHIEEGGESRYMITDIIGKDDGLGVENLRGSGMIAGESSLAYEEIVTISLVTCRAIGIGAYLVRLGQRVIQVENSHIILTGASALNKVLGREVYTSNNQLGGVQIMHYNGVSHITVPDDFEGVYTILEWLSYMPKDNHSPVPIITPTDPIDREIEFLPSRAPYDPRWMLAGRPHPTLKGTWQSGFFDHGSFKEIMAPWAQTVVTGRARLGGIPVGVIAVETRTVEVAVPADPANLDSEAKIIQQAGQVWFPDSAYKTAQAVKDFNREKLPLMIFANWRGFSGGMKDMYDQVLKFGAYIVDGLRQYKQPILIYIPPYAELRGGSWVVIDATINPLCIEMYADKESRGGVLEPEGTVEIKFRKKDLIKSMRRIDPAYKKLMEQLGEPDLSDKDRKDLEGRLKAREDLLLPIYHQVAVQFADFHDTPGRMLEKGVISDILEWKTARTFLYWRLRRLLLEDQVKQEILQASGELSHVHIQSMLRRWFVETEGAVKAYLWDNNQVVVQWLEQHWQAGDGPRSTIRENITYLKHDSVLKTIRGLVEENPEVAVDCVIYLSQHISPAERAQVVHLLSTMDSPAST
Sequence of Fungal ACC2 (Q00955 whole entry): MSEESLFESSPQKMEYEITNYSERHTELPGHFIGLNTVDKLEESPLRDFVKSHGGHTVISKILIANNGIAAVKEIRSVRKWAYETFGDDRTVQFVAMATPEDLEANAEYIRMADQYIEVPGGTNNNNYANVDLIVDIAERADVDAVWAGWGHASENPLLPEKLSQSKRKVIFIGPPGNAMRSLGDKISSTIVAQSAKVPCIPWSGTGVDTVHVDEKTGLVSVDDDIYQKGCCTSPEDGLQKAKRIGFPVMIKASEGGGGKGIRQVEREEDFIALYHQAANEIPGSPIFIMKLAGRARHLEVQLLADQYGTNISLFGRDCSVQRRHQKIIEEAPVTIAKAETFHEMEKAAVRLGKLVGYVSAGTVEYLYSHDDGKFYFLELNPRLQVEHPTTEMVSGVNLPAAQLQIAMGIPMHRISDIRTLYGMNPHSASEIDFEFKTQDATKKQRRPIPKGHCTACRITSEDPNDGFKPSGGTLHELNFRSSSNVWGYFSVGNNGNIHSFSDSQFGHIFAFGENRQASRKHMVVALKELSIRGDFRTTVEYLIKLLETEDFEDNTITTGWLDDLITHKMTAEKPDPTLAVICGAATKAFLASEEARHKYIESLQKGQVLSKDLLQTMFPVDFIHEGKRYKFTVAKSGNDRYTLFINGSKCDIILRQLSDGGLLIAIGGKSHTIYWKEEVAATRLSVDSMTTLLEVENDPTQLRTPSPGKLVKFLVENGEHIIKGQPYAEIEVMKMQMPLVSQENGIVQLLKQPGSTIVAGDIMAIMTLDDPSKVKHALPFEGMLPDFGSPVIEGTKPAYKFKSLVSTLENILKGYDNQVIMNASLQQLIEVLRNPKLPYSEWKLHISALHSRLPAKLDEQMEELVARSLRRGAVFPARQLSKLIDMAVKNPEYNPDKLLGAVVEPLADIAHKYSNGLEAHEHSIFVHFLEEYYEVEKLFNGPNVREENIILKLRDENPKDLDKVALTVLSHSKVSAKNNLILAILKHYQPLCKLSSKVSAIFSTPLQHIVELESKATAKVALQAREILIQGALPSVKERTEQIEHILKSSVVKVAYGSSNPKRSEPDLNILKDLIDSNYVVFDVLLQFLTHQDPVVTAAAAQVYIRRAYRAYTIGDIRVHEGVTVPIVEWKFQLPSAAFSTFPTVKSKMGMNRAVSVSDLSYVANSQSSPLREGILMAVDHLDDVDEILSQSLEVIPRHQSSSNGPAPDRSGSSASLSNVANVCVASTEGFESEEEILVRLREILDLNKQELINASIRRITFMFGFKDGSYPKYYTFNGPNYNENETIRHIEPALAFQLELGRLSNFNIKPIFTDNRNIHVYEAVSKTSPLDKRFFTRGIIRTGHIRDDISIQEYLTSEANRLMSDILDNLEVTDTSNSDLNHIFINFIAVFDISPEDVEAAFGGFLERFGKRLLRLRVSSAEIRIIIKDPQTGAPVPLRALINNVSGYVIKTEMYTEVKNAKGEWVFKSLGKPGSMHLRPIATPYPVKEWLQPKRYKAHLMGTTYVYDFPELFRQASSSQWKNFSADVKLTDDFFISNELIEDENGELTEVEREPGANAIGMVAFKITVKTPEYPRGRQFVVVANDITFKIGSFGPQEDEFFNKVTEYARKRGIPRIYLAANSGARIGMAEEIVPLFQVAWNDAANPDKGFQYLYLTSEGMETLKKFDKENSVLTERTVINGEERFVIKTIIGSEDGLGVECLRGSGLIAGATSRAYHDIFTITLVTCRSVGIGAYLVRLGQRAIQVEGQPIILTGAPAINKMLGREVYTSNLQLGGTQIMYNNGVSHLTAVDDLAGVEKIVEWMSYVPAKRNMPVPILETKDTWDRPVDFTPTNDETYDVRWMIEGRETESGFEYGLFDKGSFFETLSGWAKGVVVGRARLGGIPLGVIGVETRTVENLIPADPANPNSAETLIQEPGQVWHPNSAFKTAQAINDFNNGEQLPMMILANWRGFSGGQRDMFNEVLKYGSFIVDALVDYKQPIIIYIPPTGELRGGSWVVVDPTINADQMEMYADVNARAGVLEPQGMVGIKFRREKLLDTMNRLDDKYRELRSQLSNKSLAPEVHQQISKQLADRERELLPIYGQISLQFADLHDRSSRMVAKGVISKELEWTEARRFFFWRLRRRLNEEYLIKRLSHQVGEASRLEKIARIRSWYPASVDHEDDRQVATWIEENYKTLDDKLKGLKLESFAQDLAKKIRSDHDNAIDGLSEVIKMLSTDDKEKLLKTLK

In the case of `COCCO[C@@H](Cn1c(=O)n([C@@H]2CCN(C(=O)C(C)C)C2)c(=O)c2c(C)c(-n3nccn3)sc21)c1cc(F)ccc1OC` [Compound I-86, 1-((R)-2-(5-fluoro-2-methoxyphenyl)-2-(2-methoxy-ethoxy)ethyl)-3-((R)-1-isobutyrylpyrrolidine-3-yl)-5-methyl-6-(2H-1,2,3-triazol-2-yl)thieno[2,3-d]pyrimidine-2,4(1H,3H)-dione], the half-maximal inhibitory concentration (IC50) against Human ACC2 is 10 to 100 nM; at Fungal ACC2, 0.7 to 2 nM. For the same compound, the MIC (in the test with C. albicans ATCC 90028; in the test with C. krusei ATCC 6258; in test [1]) was 2.1 to 4 µg/mL (≈ 3.42 to 6.51 µM) each time.
Take `COc1ccc(F)cc1[C@H](Cn1c(=O)n([C@@H]2CCNC2=O)c(=O)c2c(C)c(-n3nccn3)sc21)O[C@H]1CC[C@@H](O)CC1` [Compound I-188, 1-((R)-2-(5-fluoro-2-methoxyphenyl)-2-(((1 s, 4S)-4-hydroxycyclohexyl)oxy)ethyl)-5-methyl-3-((R)-2-oxopyrrolidin-3-yl)-6-(2H-1,2,3-triazol-2-yl)thieno[2,3-d]pyrimidine-2,4(1H3H)-dione]: the IC50 was in the range of 2 to 10 nM on Human ACC2 and 0.7 to 2 nM on Fungal ACC2. In addition, the MIC fell in the range of 0.25 to 1 µg/mL (≈ 0.418 to 1.67 µM) in the test with C. albicans ATCC 90028, 0.25 to 1 µg/mL (≈ 0.418 to 1.67 µM) with C. krusei ATCC 6258 and 1.1 to 2 µg/mL (≈ 1.84 to 3.34 µM) in test [1].
As to `COc1ccccc1[C@H](Cn1c(=O)n([C@@H]2CCCN(C)C2=O)c(=O)c2c(C)c(-c3ncco3)sc21)OCCO` [Compound I-67, 1-((R)-2-(2-hydroxyethoxy)-2-(2-methoxyphenyl)ethyl)-5-methyl-3-((R)-1-methyl-2-oxopiperidin-3-yl)-6-(oxazol-2-yl)thieno[2,3-d]pyrimidine-2,4(1H,3H)-dione], the IC50 against Human ACC2 fell in the range of 10 to 100 nM; on Fungal ACC2 it was 2 to 10 nM. The MIC (with C. albicans ATCC 90028; in the test with C. krusei ATCC 6258; in test [1]) was 2.1 to 4 µg/mL (≈ 3.79 to 7.21 µM) in each case.
As to `COc1ccccc1[C@H](Cn1c(=O)n([C@H]2CCCN(C)C2=O)c(=O)c2c(C)c(-c3ncco3)sc21)OCCO` [Compound I-66, 1-((R)-2-(2-hydroxyethoxy)-2-(2-methoxyphenyl)ethyl)-5-methyl-3-((S)-1-methyl-2-oxopiperidin-3-yl)-6-(oxazol-2-yl)thieno[2,3-d]pyrimidine-2,4(1H,3H)-dione], the IC50 fell in the range of 10 to 100 nM at Human ACC2 and 2 to 10 nM on Fungal ACC2. For the same compound, the minimum inhibitory concentration (MIC) (in the test with C. albicans ATCC 90028; in the test on C. krusei ATCC 6258; in test [1]) was 2.1 to 4 µg/mL (≈ 3.79 to 7.21 µM) each time.
Turning to `COc1ccc(F)cc1[C@H](Cn1c(=O)n([C@@H]2CCN(C)C2=O)c(=O)c2c(C)c(-n3cccn3)sc21)OCCC(=O)O` [Compound I-179, 3-((R)-1-(5-fluoro-2-methoxyphenyl)-2-(5-methyl-3-((R)-1-methyl-2-oxopyrrolidin-3-yl)-2,4-dioxo-6-(H-pyrazol-1-yl)-3,4-dihydrothieno[2,3-d]pyrimidin-1 (2H)-yl)ethoxy)propanoic acid], the IC50 at Human ACC2 was 10 to 100 nM; at Fungal ACC2, 2 to 10 nM. Besides, the MIC (in the test on C. albicans ATCC 90028; in the test with C. krusei ATCC 6258; in test [1]) was 2.1 to 4 µg/mL (≈ 3.59 to 6.83 µM) in each case.
As to `COc1ccc(F)cc1[C@H](Cn1c(=O)n([C@]2(C)CC(=O)N(C)C2)c(=O)c2c(C)c(-n3nccn3)sc21)OCCO` [Compound I-121, 3-((R)-1,3-dimethyl-5-oxopyrrolidin-3-yl)-1-((R)-2-(5-fluoro-2-methoxyphenyl)-2-(2-hydroxyethoxy)ethyl)-5-methyl-6-(2H-1,2,3-triazol-2-yl)thieno[2,3-d]pyrimidine-2,4(1H,3H)-dione], the IC50 at Human ACC2 lay within 10 to 100 nM; at Fungal ACC2, 0.7 to 2 nM. The MIC (in the test on C. albicans ATCC 90028; with C. krusei ATCC 6258; in test [1]) was 2.1 to 4 µg/mL (≈ 3.67 to 6.99 µM) in each case.
With `COc1ccc(F)cc1[C@H](Cn1c(=O)n([C@]2(C)CCC(=O)N(C)C2)c(=O)c2c(C)c(-n3nccn3)sc21)OCCO` [Compound I-142], the IC50 against Human ACC2 is 2 to 10 nM; at Fungal ACC2, 0.7 to 2 nM. Also, the MIC (in the test on C. albicans ATCC 90028; in the test on C. krusei ATCC 6258; in test [1]) was 2.1 to 4 µg/mL (≈ 3.58 to 6.82 µM) throughout.
For the compound `COc1ccc(F)cc1[C@H](Cn1c(=O)n([C@@H]2CC(=O)N(C)C2)c(=O)c2c(C)c(-n3nccn3)sc21)OCCO` [Compound I-93, 1-((R)-2-(5-fluoro-2-methoxyphenyl)-2-(2-hydroxy-ethoxy)ethyl)-5-methyl-3-((R)-1-methyl-5-oxopyrrolidin-3-yl)-6-(2H-1,2,3-triazol-2-yl)thieno[2,3-d]pyrimidine-2,4(1H, 3H)-dione], the IC50 lay in the range of 2 to 10 nM against Human ACC2 and 0.7 to 2 nM at Fungal ACC2. Also, the MIC (in the test on C. albicans ATCC 90028; with C. krusei ATCC 6258; in test [1]) was 2.1 to 4 µg/mL (≈ 3.76 to 7.16 µM) throughout.
Consider `COc1ccc(F)cc1[C@H](Cn1c(=O)n([C@@H]2CNC(=O)C2)c(=O)c2c(C)c(-n3nccn3)sc21)OCCO` [Compound I-91, 1-((R)-2-(5-fluoro-2-methoxyphenyl)-2-(2-hydroxy-ethoxy)ethyl)-5-methyl-3-((S)-5-oxopyrrolidin-3-yl)-6-(2H-1,2,3-triazol-2-yl)thieno[2,3-d]pyrimidine-2,4(1H,3H)-dione], for which the concentration for half-maximal inhibition (IC50) on Human ACC2 lay within 2 to 10 nM; at Fungal ACC2, 0.7 to 2 nM. Moreover, the MIC (with C. albicans ATCC 90028; in the test on C. krusei ATCC 6258; in test [1]) was 2.1 to 4 µg/mL (≈ 3.86 to 7.35 µM) each time.
For the compound `Cc1c(-n2nccn2)sc2c1c(=O)n([C@H]1CCN(C)C1=O)c(=O)n2C[C@H](O[C@H]1CC[C@@H](O)CC1)c1cc(F)ccc1O` [Compound I-190, 1-((R)-2-(5-fluoro-2-hydroxyphenyl)-2-(((1 s, 4S)-4-hydroxycyclohexyl)oxy)ethyl)-5-methyl-3-((S)-1-methyl-2-oxopyrrolidin-3-yl)-6-(2H-1,2,3-triazol-2-yl)thieno[2,3-d]pyrimidine-2,4(1H,3H)-dione], the figures for the half-maximal inhibitory concentration (IC50) against Human ACC2 and at Fungal ACC2 were 10 to 100 nM and 0.7 to 2 nM, respectively. For the same compound, the MIC (in the test with C. albicans ATCC 90028; with C. krusei ATCC 6258; in test [1]) was 2.1 to 4 µg/mL (≈ 3.51 to 6.68 µM) in each case.
In the case of `COc1ccc(F)cc1[C@H](Cn1c(=O)n([C@H]2CCN(C)C2=O)c(=O)c2c(C)c(-n3nccn3)sc21)OCCC(=O)O` [Compound I-176, 3-((R)-1-(5-fluoro-2-methoxyphenyl)-2-(5-methyl-3-((S)-1-methyl-2-oxopyrrolidin-3-yl)-2,4-dioxo-6-(2H-1,2,3-triazol-2-yl)-3,4-dihydrothieno[2,3-d]pyrimidin-1 (2H)-yl)ethoxy)propanoic acid], the IC50 on Human ACC2 was 10 to 100 nM; on Fungal ACC2, 2 to 10 nM. Further, the MIC (with C. albicans ATCC 90028; in the test with C. krusei ATCC 6258; in test [1]) was 2.1 to 4 µg/mL (≈ 3.58 to 6.82 µM) throughout.
`COc1ccc(F)cc1[C@H](Cn1c(=O)n([C@@H]2CCN(C)C2=O)c(=O)c2c(C)c(-n3cccn3)sc21)O[C@H]1CC[C@@H](O)CC1` [Compound I-181, 1-((R)-2-(5-fluoro-2-methoxyphenyl)-2-(((I s, 4S)-4-hydroxycyclohexyl)oxy)ethyl)-5-methyl-3-((R)-1-methyl-2-oxopyrrolidin-3-yl)-6-(1H-pyrazol-1-yl)thieno[2,3-d]pyrimidine-2,4(1H,3H)-dione]: the IC50 lay within 2 to 10 nM against Human ACC2 and 0.7 to 2 nM on Fungal ACC2. In addition, the MIC in the test with C. albicans ATCC 90028 lay within 0.25 to 1 µg/mL (≈ 0.409 to 1.63 µM); in the test on C. krusei ATCC 6258, 1.1 to 2 µg/mL (≈ 1.8 to 3.27 µM); in test [1], 1.1 to 2 µg/mL (≈ 1.8 to 3.27 µM).

What is called IC50 is the concentration that inhibits the measured activity by half. As usually defined, the MIC is the lowest concentration found to suppress growth.
